Each structure is given as a SMILES string.

The experiment has as its target T1, human glycogen phosphorylase a (Homo sapiens, UniProt P06737).
T1 sequence (P06737 1-847): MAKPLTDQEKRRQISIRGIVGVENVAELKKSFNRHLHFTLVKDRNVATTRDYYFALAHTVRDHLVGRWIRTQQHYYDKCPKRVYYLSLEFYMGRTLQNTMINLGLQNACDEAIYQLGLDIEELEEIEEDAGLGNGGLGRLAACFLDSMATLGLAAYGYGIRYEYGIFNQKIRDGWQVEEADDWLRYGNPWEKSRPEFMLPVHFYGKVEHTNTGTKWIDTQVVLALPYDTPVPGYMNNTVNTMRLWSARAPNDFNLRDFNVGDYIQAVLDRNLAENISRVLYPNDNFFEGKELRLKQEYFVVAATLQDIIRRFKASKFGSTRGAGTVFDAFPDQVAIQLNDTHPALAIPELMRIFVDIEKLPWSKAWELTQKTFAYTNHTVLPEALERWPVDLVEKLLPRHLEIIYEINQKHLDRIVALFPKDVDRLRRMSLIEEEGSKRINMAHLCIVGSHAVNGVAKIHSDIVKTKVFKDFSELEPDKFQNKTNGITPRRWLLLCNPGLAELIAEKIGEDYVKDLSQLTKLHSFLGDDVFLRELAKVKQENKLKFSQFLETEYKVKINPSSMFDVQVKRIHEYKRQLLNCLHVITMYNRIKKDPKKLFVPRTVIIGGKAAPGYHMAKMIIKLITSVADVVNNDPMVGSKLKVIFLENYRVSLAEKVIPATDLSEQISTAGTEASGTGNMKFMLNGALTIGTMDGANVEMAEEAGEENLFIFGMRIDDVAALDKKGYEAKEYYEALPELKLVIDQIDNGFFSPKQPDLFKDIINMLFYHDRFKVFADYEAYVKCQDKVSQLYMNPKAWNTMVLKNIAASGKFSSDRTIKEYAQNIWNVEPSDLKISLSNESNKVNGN
The experiment in a line: Glycogen phosphorylase a activity assay. The format is biochemical. The settings on record: 10 μM test substance; GPa activity measured in the reverse direction (glycogen synthesis from glucose 1-phosphate, liberated inorganic phosphate, absorption at 820 nm); in vitro. How it is done:
Glycogen Phosphorylase a Activity Assay
The effect of compounds on the activity of the active form of glycogen phosphorylase (GPa) was measured in the reverse direction by following the synthesis of glycogen from glucose 1-phosphate by determining the liberation of inorganic phosphate. All the reactions were carried out as duplicate determinations in microtiter plates with 96 wells (Half Area Plates, Costar No 3696), measuring the change in absorption owing to the formation of the reaction product at the wavelength specified hereinafter in a Multiskan Ascent Elisa Reader (Lab Systems, Finland). […] The baseline glycogen phosphorylase a activity in the absence of test substance was determined by adding 10 μl of buffer solution T (0.1% DMSO). The mixture was incubated at room temperature for 40 minutes, and the liberated inorganic phosphate was measured by the general method of Drueckes et al. (Drueckes P, Schinzel R, Palm D, Anal Biochem 1995 Sep. 1;230(1):173-177) with the following modifications: 50 μl of a stop solution of 7.3 mM ammonium molybdate, 10.9 mM zinc acetate, 3.6% ascorbic acid, 0.9% SDS are added to 50 μl of the enzyme mixture. After incubation at 45° C. for 60 minutes, the absorption at 820 nm was measured. […]

In the case of `CCOC(=O)N1CCC(NC(=O)c2ccc(Cl)c(NC(=O)NC(=O)c3ccccc3Cl)c2)CC1` [Example 1, Ethyl 4-{4-chloro-3-[3-(2-chlorobenzoyl)ureido]benzoylamino}piperidine-1-carboxylate], the inhibition at 10 µM was determined as 87%.

Values taken from US6812250B2, “Carboxamide-substituted phenylurea derivatives, process for their preparation and their use as medicaments” (Aventis Pharma Deutschland GmbH, priority 2001, dated 2004).
